From PMC6222424, “Hits-to-Lead Optimization of the Natural Compound 2,4,6-Trihydroxy-3-geranyl-acetophenone (tHGA) as a Potent LOX Inhibitor: Synthesis, Structure-Activity Relationship (SAR) Study, and Computational Assignment” (Molecules : A Journal of Synthetic Chemistry and Natural …, 2018)
Read-outs that look alike come from different tables or passages of the source.

How the values were obtained:
[1] = system: allergic airway inflammation; set-up: method as in PMID 22266348; conditions: acute murine model; compared with Zileuton; cited from earlier work
soybean LOX-1 [2] = target: T1, soybean LOX-1 (Glycine max, UniProt P08170); test: Enzyme kinetics study (Michaelis–Menten, Lineweaver–Burk); type: biochemical; set-up: purchased; conditions: for type of inhibition: Lineweaver–Burk plot; for Ki: from slope of Lineweaver–Burk plot vs inhibitor concentration, read-out: Ki (inhibitor constant)
T1 sequence (P08170 1-839): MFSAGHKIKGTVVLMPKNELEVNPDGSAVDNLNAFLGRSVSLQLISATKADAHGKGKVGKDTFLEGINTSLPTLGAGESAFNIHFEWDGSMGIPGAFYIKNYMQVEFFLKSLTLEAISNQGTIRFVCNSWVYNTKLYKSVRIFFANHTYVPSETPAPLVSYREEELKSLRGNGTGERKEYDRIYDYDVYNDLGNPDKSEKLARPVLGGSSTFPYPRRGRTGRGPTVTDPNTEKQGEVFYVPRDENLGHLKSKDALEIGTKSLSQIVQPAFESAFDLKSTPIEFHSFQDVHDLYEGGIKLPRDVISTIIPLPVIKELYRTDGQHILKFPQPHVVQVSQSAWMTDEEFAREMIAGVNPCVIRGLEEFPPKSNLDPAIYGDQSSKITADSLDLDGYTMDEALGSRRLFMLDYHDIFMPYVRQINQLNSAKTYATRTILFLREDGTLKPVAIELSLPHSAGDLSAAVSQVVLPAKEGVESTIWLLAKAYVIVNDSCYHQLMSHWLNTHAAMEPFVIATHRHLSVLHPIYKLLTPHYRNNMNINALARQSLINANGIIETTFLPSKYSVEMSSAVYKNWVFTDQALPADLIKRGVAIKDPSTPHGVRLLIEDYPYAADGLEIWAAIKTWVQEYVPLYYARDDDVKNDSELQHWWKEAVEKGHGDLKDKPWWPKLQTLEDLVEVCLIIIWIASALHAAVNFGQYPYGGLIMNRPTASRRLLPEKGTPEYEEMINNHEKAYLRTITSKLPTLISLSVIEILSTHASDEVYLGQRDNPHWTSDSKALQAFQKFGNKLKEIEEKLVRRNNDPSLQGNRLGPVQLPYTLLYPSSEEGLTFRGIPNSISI
Experimental: Since compounds 3e and tHGA (3a) are competitive inhibitors, there were no changes in maximal velocity.
Kinetics study: Enzyme kinetics was performed similar to the above inhibition assay with slight modification. […] About 10 μL each of 4 linoleic acid substrate concentrations (0.2, 0.3, 0.4, and 0.5 mM) was added to initiate the enzymatic conversion. End product of the reaction was measured at 234 nm over a period of 10 min, with readings taken every 30 s. The type of inhibition (competitive, uncompetitive, noncompetitive) was determined by nonlinear regression Michaelis–Menten enzyme kinetics and the corresponding Lineweaver–Burk plots using 3 concentrations of each inhibitor: 0, 1.57, and 3.13 μg/mL. All experiments were performed in triplicate and the average values and standard errors were plotted. The Km and Vmax values were calculated from the nonlinear regression fitting curve of GraphPad Prism 5.

soybean LOX-1 [3] = target: T1, soybean LOX-1; set-up: purchased; method as in PMID 25100256; conditions: data published in previous work, read-out: IC50 Value (μM) Mean ± SEM, cited from earlier work
soybean LOX-1 [4] = target: T1, soybean LOX-1; test: In vitro soybean 15-lipoxygenase (LOX) inhibition assay; conditions: for solubility of the compound in the 15-LOX assay: assay could not be carried out; for inhibition at 100 µg/mL: read-out: % Inhibition (100 μg/mL)
Experimental: Briefly, sodium phosphate buffer (160 μL, 100 mM, pH 8.0), test sample (10 μL), and soybean 15-LOX (1.13.11.12) type I-B solution (20 μL, 320 U/well) were mixed and incubated at room temperature for 15 min. The substrate linoleic acid (10 μL, 0.6 mM) solution was added to initiate the reaction. End product from the enzymatic conversion was measured at absorbance of 234 nm over a period of 6 min and the assay was performed in triplicate. Dimethyl sulfoxide (DMSO) was used as a solvent to dissolve test samples and reference standard. […] IC50 values were calculated by the nonlinear regression fitting curve of GraphPad Prism 5. The percentage of inhibition can be calculated by the following formula [10, 11]: Inhibitory% = ODcontrol−ODsample/ODcontrol

Row | melting point | IC50 (soybean LOX-1 [4]) | inhibition at 100 µg/mL (soybean LOX-1 [4]) | SMILES | other results
1 |  |  |  | CC(=O)c1c(O)cc(O)c(C/C=C(\C)CCC=C(C)C)c1O [Compound 3a, 2,4,6-Trihydroxy-3-geranylacetophenone] | prevention of allergic airway inflammation [1]: as effective as Zileuton; type of inhibition (soybean LOX-1 [2]): competitive; Ki (soybean LOX-1 [2]): 41.1 µM; IC50 (soybean LOX-1 [3]; listed as 3a (tHGA)): 23.6 ± 1.7 µM
2 |  |  |  | CCC(=O)c1c(O)cc(O)c(C/C=C(\C)CCC=C(C)C)c1O [Compound 3c, (E)-1-(3-(3,7-dimethylocta-2,6-dienyl)-2,4,6-trihydroxyphenyl)propan-1-one] | IC50 (soybean LOX-1 [3]): 12.3 ± 0.6 µM
3 | 133 to 135 °C | 35.1 ± 1.3 µM | 79.4 ± 6.7% | CCCCC(=O)c1c(O)cc(O)c(CC=C(C)C)c1O [Compound 4e, 1-(2,4,6-trihydroxy-3-(3-methylbut-2-enyl)phenyl)pentan-1-one] | 
4 | 138 to 140 °C | 61 ± 1.1 µM | 78.1 ± 3.9% | CCC(=O)c1c(O)cc(O)c(CC=C(C)C)c1O [Compound 4c, 1-(2,4,6-trihydroxy-3-(3-methylbut-2-enyl)phenyl)propan-1-one] | 
5 |  |  |  | CCCCC(=O)c1c(O)cc(O)c(C/C=C(\C)CCC=C(C)C)c1O [Compound 3e, (E)-1-(3-(3,7-dimethylocta-2,6-dienyl)-2,4,6-trihydroxyphenyl)pentan-1-one] | fold less active than the standard drug NDGA (soybean LOX-1 [4]; IC50 compared with NDGA): 100 fold; type of inhibition (soybean LOX-1 [2]): competitive; Ki (soybean LOX-1 [2]): 36.1 µM; IC50 (soybean LOX-1 [3]): 10.3 µM
6 |  | 72.1 ± 1.2 µM | 94.8 ± 5.2% | CC(=O)c1c(O)cc(O)c(CC=C(C)C)c1O [Compound 4a, 1-(2,4,6-trihydroxy-3-(3-methylbut-2-enyl)phenyl)ethanone] | 
7 | 116 to 118 °C | 15.3 ± 0.5 µM | 90.7 ± 5% | CCCC(=O)c1c(O)cc(O)c(C/C=C(\C)CCC=C(C)C)c1O [Compound 3d, (E)-1-(3-(3,7-dimethylocta-2,6-dienyl)-2,4,6-trihydroxyphenyl)butan-1-one] | 
8 |  | 52.6 ± 1 µM | 93.7 ± 3.8% | CC(C)=CCc1c(O)cc(O)c(C(=O)C2CCCCC2)c1O [Compound 4f, Cyclohexyl(2,4,6-trihydroxy-3-(3-methylbut-2-enyl)phenyl)methanone] | 
9 |  |  |  | CCCCC(=O)c1c(OC)cc(OC)c(C/C=C(\C)CCC=C(C)C)c1O [Compound 5e, (E)-1-(3-(3,7-dimethylocta-2,6-dienyl)-2-hydroxy-4,6-dimethoxyphenyl)pentan-1-one] | solubility of the compound in the 15-LOX assay (soybean LOX-1 [4]): insolubility
10 | 203 to 205 °C | 95.4 ± 4 µM | 95.2 ± 3.2% | CC(C)=CCc1c(O)cc(O)c(C(=O)/C=C/c2ccccc2)c1O [Compound 4g, (E)-3-phenyl-1-(2,4,6-trihydroxy-3-(3-methylbut-2-enyl)phenyl)prop-2-en-1-one] | 
11 |  |  |  | CC(C)=CCC/C(C)=C/Cc1c(O)cc(O)c(C(=O)C2CCCCC2)c1O [Compound 3f] | IC50 (soybean LOX-1 [3]): 26.3 ± 1.3 µM
12 |  |  |  | CC(C)=CCC/C(C)=C/Cc1c(O)cc(O)c(C(=O)C(C)C)c1O [Compound 3b] | IC50 (soybean LOX-1 [3]): 27.6 ± 3.6 µM

Row | SMILES | melting point | IC50 (soybean LOX-1 [4]) | inhibition at 100 µg/mL (soybean LOX-1 [4]) | other results
13 | COc1cc(OC)c(C(C)=O)c(O)c1CC=C(C)C [Compound 6a, 1-(2-hydroxy-4,6-dimethoxy-3-(3-methylbut-2-enyl)phenyl)ethanone] | 97 to 99 °C |  |  | solubility of the compound in the 15-LOX assay (soybean LOX-1 [4]): insolubility
14 | CC(C)=CCc1c(O)cc(O)c(C(=O)C(C)C)c1O [Compound 4b, 2-methyl-1-(2,4,6-trihydroxy-3-(3-methylbut-2 enyl)phenyl)propan-1-one] |  | 53.7 ± 0.7 µM | 82.5 ± 7.3% | 
15 | CCCC(=O)c1c(O)cc(O)c(CC=C(C)C)c1O [Compound 4d, 1-(2,4,6-trihydroxy-3-(3-methylbut-2-enyl)phenyl)butan-1-one] |  | 39.5 ± 1.2 µM | 86.2 ± 6.9% | 
16 | CCCCC(=O)c1c(OC)cc(OC)c(CC=C(C)C)c1O [Compound 6e, 1-(2-hydroxy-4,6-dimethoxy-3-(3-methylbut-2-enyl)phenyl)pentan-1-one] | 84 to 86 °C |  |  | solubility of the compound in the 15-LOX assay (soybean LOX-1 [4]): insolubility
17 | COc1cc(OC)c(C(C)=O)c(O)c1C/C=C(\C)CCC=C(C)C [Compound 5a, (E)-1-(3-(3,7-dimethylocta-2,6-dienyl)-2-hydroxy-4,6-dimethoxyphenyl)ethanone] | 72 to 74 °C |  |  | solubility of the compound in the 15-LOX assay (soybean LOX-1 [4]): insolubility
